Measurements as given in PMC3524758, “Development and evaluation of a novel radioiodinated vesamicol analog as a sigma receptor imaging agent” (EJNMMI Research, 2012).
pKi: −log10 of the molar value.

How the values were obtained:
sigma receptors = experiment: Blocking studies with excess sigma ligand in DU-145 tumor-bearing mice; assay type: in vivo; settings: 10 μmol/kg i.v. co-injection, 1-h post-injection
Experimental: At 1-h post-injection, the mice were killed, and biodistribution experiments were conducted as described above.

sigma-1 receptor = molecular target: T1, sigma-1 receptor (Rattus norvegicus, UniProt Q9R0C9); set-up: method as in PMID 15670917; settings: cited from earlier work
T1 construct: from tissue; host or cells: rat brain without cerebellum (male Sprague-Dawley rats)

[1] = set-up: method as in PMID 19659515; settings: cited from earlier work
[2] = test system: DU-145 prostate cancer cell lines; experiment: Cellular uptake and washout experiments in vitro; assay type: cell-based; settings: DU-145 cells
Experimental: Radiotracer uptake studies were performed in monolayer cultures of DU-145 prostate cancer cell lines, which were obtained from ATCC (Manassas, VA, USA). Cells were grown in cell culture dishes in RPMI 1640 medium with phenol red, 10% heat-inactivated fetal bovine serum (FBS), 100-μg/mL glutamine, 100-units/mL penicillin, and 100-μg/mL streptomycin at 37°C in a humidified atmosphere of 95% air and 5% carbon dioxide. Cells were plated on 6-well tissue culture plates (4 × 10^5 cells/well) for 24 h before the study and incubated at 37°C in the culture medium without FBS containing (+)-^125I]IV-OH or (+)-^125I]pIV (3.7 kBq/well), which was prepared by a method of a previous study for different time intervals (15, 30, 60, and 120 min). For the washout experiment, tumor cells exposed to a medium containing (+)-^125I]IV-OH or (+)-^125I]pIV for 60 min were washed with phosphate buffered saline (PBS) and incubated in fresh (nonradioactive) medium without FBS at 37°C for 15, 30, and 60 min. […] After incubation, cells were washed twice with ice-cold PBS and resolved by adding 0.5 mL of 1-M NaOH. The solutions were then collected and the radioactivity was determined with an auto well gamma counter (ARC-380; Aloka) and corrected for background radiation. The radioactivity of each sample was normalized for the protein level, which was determined using a Protein Assay Bicinchoninate Kit (Nacalai Tesque).

T1 sequence (Q9R0C9 whole entry): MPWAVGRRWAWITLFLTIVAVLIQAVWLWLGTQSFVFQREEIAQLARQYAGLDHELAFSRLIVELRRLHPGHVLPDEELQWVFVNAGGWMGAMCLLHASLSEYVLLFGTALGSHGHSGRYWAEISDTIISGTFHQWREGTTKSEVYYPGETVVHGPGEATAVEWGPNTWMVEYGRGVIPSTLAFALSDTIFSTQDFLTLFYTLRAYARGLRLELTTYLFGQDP

| SMILES | effect of co-injected ligand on brain to blood uptake ratio of (+)-[^125I]IV-OH (sigma receptors) | effect of co-injected ligand on pancreas to blood uptake ratio of (+)-[^125I]IV-OH (sigma receptors) | effect of co-injected ligand on tumor to blood uptake ratio of (+)-[^125I]IV-OH (sigma receptors) | pKi (sigma-1 receptor) | log P [1] | time at which uptake was saturated [2] | accumulation in the presence of haloperidol ([2]; haloperidol 10 μM in culture medium) | intracellular radioactivity released into the supernatant ([2]; within 60 min after medium replacement, specific uptake) |
| --- | --- | --- | --- | --- | --- | --- | --- | --- |
| O[C@@H]1CCCCC1N1CCC(c2ccc(I)cc2)CC1 (single isomer, unassigned; (+)) [(+)-pIV, (+)-2-[4-(4-iodophenyl)piperidino]cyclohexanol] | significant decrease | significant decrease | significant decrease | 8.89 | – | – | – | – |
| O[C@H]1CCCC[C@@H]1N1CCC(c2ccc([125I])cc2)CC1 [(+)-[^125I]pIV, reference compound] | – | – | – | – | 2.08 | 30 min | remarkably lessened | 44% |
